In patent US20230322846A9, “NEUROACTIVE STEROIDS AND THEIR METHODS OF USE” (SAGE THERAPEUTICS, INC., priority 2018, published 2023):
pIC50: −log10 of the molar value.

These molecules were tested against [35S]-TBPS binding, rat brain cortical membranes (assay: Steroid inhibition of [35S]-TBPS binding). Details: 3 nM [35S]-TBPS, in the presence of 5 mM GABA.
Method in brief: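 Rat cortical P2 membranes incubated 90 min at room temperature with 3 nM [35S]-TBPS, […] and test compound (0.5% DMSO final) in NaCl/Na–K phosphate pH 7.4; nonspecific binding with […]. Filter-bound radioactivity counted; IC50 and Imax from nonlinear fits, mean ± SEM.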
For `CCOC[C@@]1(O)CC[C@H]2[C@H](CC[C@@H]3[C@@H]2CC[C@]2(C)[C@@H]([C@@H](C)Cn4ccnn4)CC[C@@H]32)C1` [Example 268, (3R,5R,8R,9R,10S,13S,14S,17R)-17-((R)-1-(1H-1,2,3-triazol-1-yl)propan-2-yl)-3-(ethoxymethyl)-13-methylhexadecahydro-1H-cyclopenta[a]phenanthren-3-ol], the pIC50 was > 7.00. For `CCOC[C@@]1(O)CC[C@H]2[C@H](CC[C@@H]3[C@@H]2CC[C@]2(C)[C@@H]([C@@H](C)Cn4cc(C#N)cn4)CC[C@@H]32)C1` [Example 269, 1-((R)-2-((3R,5R,8R,9R,10S,13S,14S,17R)-3-(ethoxymethyl)-3-hydroxy-13-methylhexadecahydro-1H-cyclopenta[a]phenanthren-17-yl)propyl)-1H-pyrazole-4-carbonitrile], the pIC50 was > 7.00. For `CC[C@@]1(O)CC[C@H]2[C@H](CC[C@@H]3[C@@H]2CC[C@]2(C)[C@@H]([C@H](C)Cn4ccc(C#N)n4)CC[C@@H]32)C1` [Example 271, 1-((S)-2-((3R,5R,8R,9R,10S,13S,14S,17R)-3-ethyl-3-hydroxy-13-methylhexadecahydro-1H-cyclopenta[a]phenanthren-17-yl)propyl)-1H-pyrazole-3-carbonitrile], the pIC50 was > 7.00. For `CC[C@@]1(O)CC[C@H]2[C@H](CC[C@@H]3[C@@H]2CC[C@]2(C)[C@@H]([C@@H](C)Cn4nccc4C#N)CC[C@@H]32)C1` [Example 273, 1-((R)-2-((3R,5R,8R,9R,10S,13S,14S,17R)-3-ethyl-3-hydroxy-13-methylhexadecahydro-1H-cyclopenta[a]phenanthren-17-yl)propyl)-1H-pyrazole-5-carbonitrile], the pIC50 was > 7.00. `CC[C@@]1(O)CC[C@H]2[C@H](CC[C@@H]3[C@@H]2CC[C@]2(C)[C@@H]([C@H](C)Cn4nccc4C#N)CC[C@@H]32)C1` [Example 274, 1-((S)-2-((3R,5R,8R,9R,10S,13S,14S,17R)-3-ethyl-3-hydroxy-13-methylhexadecahydro-1H-cyclopenta[a]phenanthren-17-yl)propyl)-1H-pyrazole-5-carbonitrile] gave a pIC50 of 6.00 to 7.00. For `CC[C@@]1(O)CC[C@H]2[C@H](CC[C@@H]3[C@@H]2CC[C@]2(C)[C@@H]([C@@H](C)Cn4cc(C#N)cn4)CC[C@@H]32)C1` [Example 275, 1-((R)-2-((3R,5R,8R,9R,10S,13S,14S,17R)-3-ethyl-3-hydroxy-13-methylhexadecahydro-1H-cyclopenta[a]phenanthren-17-yl)propyl)-1H-pyrazole-4-carbonitrile], the pIC50 was > 7.00. With `CCOC[C@@]1(O)CC[C@@]2(C)[C@H](CC[C@@H]3[C@@H]2CC[C@]2(C)[C@@H]([C@@H](C)Cn4ccc(C#N)n4)CC[C@@H]32)C1` [Example 279, 1-((R)-2-((3R,5R,8R,9S,10S,13S,14S,17R)-3-(ethoxymethyl)-3-hydroxy-10,13-dimethylhexadecahydro-1H-cyclopenta[a]phenanthren-17-yl)propyl)-1H-pyrazole-3-carbonitrile] the pIC50 was > 7.00. `COC[C@@]1(O)CC[C@@]2(C)[C@H](CC[C@@H]3[C@@H]2[C@H](O)C[C@]2(C)[C@@H]([C@H](C)Cn4cc(C#N)cn4)CC[C@@H]32)C1` [Example 282, 1-((S)-2-((3R,5R,8S,9S,10S,11R,13S,14S,17R)-3,11-dihydroxy-3-(methoxymethyl)-10,13-dimethylhexadecahydro-1H-cyclopenta[a]phenanthren-17-yl)propyl)-1H-pyrazole-4-carbonitrile] was tested, and the pIC50 was 6.00 to 7.00. `COC[C@@]1(O)CC[C@@]2(C)[C@H](CC[C@@H]3[C@@H]2[C@H](O)C[C@]2(C)[C@@H]([C@@H](C)Cn4cc(C#N)cn4)CC[C@@H]32)C1` [Example 283, 1-((R)-2-((3R,5R,8S,9S,10S,11R,13S,14S,17R)-3,11-dihydroxy-3-(methoxymethyl)-10,13-dimethylhexadecahydro-1H-cyclopenta[a]phenanthren-17-yl)propyl)-1H-pyrazole-4-carbonitrile] showed a pIC50 of 6.00 to 7.00. In the case of `CCOC[C@@]1(O)CC[C@H]2[C@H](CC[C@@H]3[C@@H]2CC[C@]2(C)[C@@H]([C@@H](C)Cn4nccc4C#N)CC[C@@H]32)C1` [Example 285, 1-((R)-2-((3R,5R,8R,9R,10S,13S,14S,17R)-3-(ethoxymethyl)-3-hydroxy-13-methylhexadecahydro-1H-cyclopenta[a]phenanthren-17-yl)propyl)-1H-pyrazole-5-carbonitrile], the pIC50 was > 7.00. With `CCOC[C@@]1(O)CC[C@H]2[C@H](CC[C@@H]3[C@@H]2CC[C@]2(C)[C@@H]([C@@H](C)Cn4ccc(C#N)n4)CC[C@@H]32)C1` [Example 288, 1-((R)-2-((3R,5R,8R,9R,10S,13S,14S,17R)-3-(ethoxymethyl)-3-hydroxy-13-methylhexadecahydro-1H-cyclopenta[a]phenanthren-17-yl)propyl)-1H-pyrazole-3-carbonitrile] the pIC50 was > 7.00. `CCOC[C@@]1(O)CC[C@H]2[C@H](CC[C@@H]3[C@@H]2CC[C@]2(C)[C@@H]([C@H](C)Cn4nnc(C)n4)CC[C@@H]32)C1` [Example 289, (3R,5R,8R,9R,10S,13S,14S,17R)-3-(ethoxymethyl)-13-methyl-17-((S)-1-(5-methyl-2H-tetrazol-2-yl)propan-2-yl)hexadecahydro-1H-cyclopenta[a]phenanthren-3-ol] was tested, and the pIC50 was > 7.00. For `CCOC[C@@]1(O)CC[C@H]2[C@H](CC[C@@H]3[C@@H]2CC[C@]2(C)[C@@H]([C@@H](C)Cn4nnc(C)n4)CC[C@@H]32)C1` [Example 290, (3R,5R,8R,9R,10S,13S,14S,17R)-3-(ethoxymethyl)-13-methyl-17-((R)-1-(5-methyl-2H-tetrazol-2-yl)propan-2-yl)hexadecahydro-1H-cyclopenta[a]phenanthren-3-ol], the pIC50 was > 7.00. With `COC[C@@]1(O)CC[C@H]2[C@@H](CC[C@@H]3[C@@H]2CC[C@]2(C)[C@@H](CCn4nnc(C)n4)CC[C@@H]32)C1` [Example 295, (3R,5S,8R,9R,10S,13R,14S,17R)-3-(methoxymethyl)-13-methyl-17-(2-(5-methyl-2H-tetrazol-2-yl)ethyl)hexadecahydro-1H-cyclopenta[a]phenanthren-3-ol] the pIC50 was > 7.00. In the case of `COC[C@@]1(O)CC[C@H]2[C@@H](CC[C@@H]3[C@@H]2CC[C@]2(C)[C@@H](CCn4nnnc4C)CC[C@@H]32)C1` [Example 296, (3R,5S,8R,9R,10S,13R,14S,17R)-3-(methoxymethyl)-13-methyl-17-(2-(5-methyl-1H-tetrazol-1-yl)ethyl)hexadecahydro-1H-cyclopenta[a]phenanthren-3-ol], the pIC50 was > 7.00. For `COC[C@@]1(O)CC[C@H]2[C@@H](CC[C@@H]3[C@@H]2CC[C@]2(C)[C@@H](CCn4nccn4)CC[C@@H]32)C1` [Example 297, (3R,5S,8R,9R,10S,13R,14S,17R)-17-(2-(2H-1,2,3-triazol-2-yl)ethyl)-3-(methoxymethyl)-13-methylhexadecahydro-1H-cyclopenta[a]phenanthren-3-ol], the pIC50 was > 7.00. For `COC[C@@]1(O)CC[C@H]2[C@@H](CC[C@@H]3[C@@H]2CC[C@]2(C)[C@@H](CCn4ccnn4)CC[C@@H]32)C1` [Example 298, (3R,5S,8R,9R,10S,13R,14S,17R)-17-(2-(1H-1,2,3-triazol-1-yl)ethyl)-3-(methoxymethyl)-13-methylhexadecahydro-1H-cyclopenta[a]phenanthren-3-ol], the pIC50 was > 7.00. `CC(C)C[C@@]1(O)CC[C@H]2[C@H](CC[C@@H]3[C@@H]2CC[C@]2(C)[C@@H]([C@H](C)Cn4cc(C#N)cn4)CC[C@@H]32)C1` [Example 300, 1-((S)-2-((3S,5R,8R,9R,10S,13S,14S,17R)-3-hydroxy-3-isobutyl-13-methylhexadecahydro-1H-cyclopenta[a]phenanthren-17-yl)propyl)-1H-pyrazole-4-carbonitrile] was tested, and the pIC50 was > 7.00. For `CCC[C@@]1(O)CC[C@@]2(CC)[C@H](CC[C@H]3[C@@H]4CC[C@H]([C@@H](C)Cn5cc(C#N)cn5)[C@@]4(C)CC[C@@H]32)C1` [Example 301, 1-((R)-2-((3R,5R,8S,9S,10S,13S,14S,17R)-10-ethyl-3-hydroxy-13-methyl-3-propylhexadecahydro-1H-cyclopenta[a]phenanthren-17-yl)propyl)-1H-pyrazole-4-carbonitrile], the pIC50 was > 7.00. `CCC[C@@]1(O)CC[C@@]2(CC)[C@H](CC[C@H]3[C@@H]4CC[C@H]([C@H](C)Cn5cc(C#N)cn5)[C@@]4(C)CC[C@@H]32)C1` [Example 302, 1-((S)-2-((3R,5R,8S,9S,10S,13S,14S,17R)-10-ethyl-3-hydroxy-13-methyl-3-propylhexadecahydro-1H-cyclopenta[a]phenanthren-17-yl)propyl)-1H-pyrazole-4-carbonitrile] was tested, and the pIC50 was > 7.00. With `C[C@H](Cn1cc(C#N)cn1)[C@H]1CC[C@H]2[C@@H]3CC[C@@H]4C[C@@](O)(CC5CC5)CC[C@@H]4[C@H]3CC[C@]12C` [Example 304, 1-((S)-2-((3S,5R,8R,9R,10S,13S,14S,17R)-3-(cyclopropylmethyl)-3-hydroxy-13-methylhexadecahydro-1H-cyclopenta[a]phenanthren-17-yl)propyl)-1H-pyrazole-4-carbonitrile] the pIC50 was > 7.00. With `C[C@@H](Cn1cc(C#N)cn1)[C@H]1CC[C@H]2[C@@H]3CC[C@@H]4C[C@](C)(O)CC[C@]4(C)[C@H]3CC[C@]12C` [Example 305, 1-((R)-2-((3R,5R,8R,9S,10S,13S,14S,17R)-3-hydroxy-3,10,13-trimethylhexadecahydro-1H-cyclopenta[a]phenanthren-17-yl)propyl)-1H-pyrazole-4-carbonitrile] the pIC50 was > 7.00.
